The assay relates to P388 leukemia ip, CD2F1 mice, survival T/C. Briefly: NCI In Vivo Anticancer Drug Screen. Data for tumor model P388 Leukemia (intraperitoneal) in CD2F1 (CDF1) mice. The following applies: endpoint: median survival time, higher = longer survival. The method, boiled down:
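Mice carrying the transplanted tumor received test compound or vehicle. Survival was recorded in each group, and the value is the treated-group measurement divided by that of the vehicle-treated control group.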

“And” between values parts separate entries of the source, which are not always exact repeats. Identical values can stand only once. Inconclusive results and toxic doses are left out.

Take `CCN(C)c1cc(=O)c2ccc3ccccc3c2o1`: the T/C is, setting by setting: (dose: 50.0 mg/kg/injection, schedule: Q01DX009 (ip), vehicle: saline with Tween-80) 101 % of control; (dose: 100.0 mg/kg/injection, schedule: Q01DX009 (ip), vehicle: saline with Tween-80) 105 % of control.

Turning to `CC[n+]1cccc(O)c1`, the T/C reads like this: (dose: 50.0 mg/kg/injection, schedule: Q01DX009 (ip), vehicle: saline) 105 % of control and 94 % of control; (dose: 100.0 mg/kg/injection, schedule: Q01DX009 (ip), vehicle: saline) 95 % of control and 96 % of control; (dose: 200.0 mg/kg/injection, schedule: Q01DX009 (ip), vehicle: saline) 107 % of control and 95 % of control; (dose: 400.0 mg/kg/injection, schedule: Q01DX009 (ip), vehicle: saline) 100 % of control and 105 % of control.

Consider `OC(Cc1cccnc1)(c1ccccc1)c1cccc2ccccc12` (centres undefined), for which the T/C runs as follows: (dose: 100.0 mg/kg/injection, schedule: Q04DX003 (ip), vehicle: saline with Tween-80) 90 % of control; (dose: 200.0 mg/kg/injection, schedule: Q04DX003 (ip), vehicle: saline with Tween-80) 86 % of control.

On to `OCc1nccn1Cc1ccccc1`, for which the T/C runs as follows: (dose: 50.0 mg/kg/injection, schedule: Q01DX001 (ip), vehicle: saline) 115 % of control; (dose: 100.0 mg/kg/injection, schedule: Q01DX001 (ip), vehicle: saline) 95 % of control.

Turning to `COc1ccc2c(c1)no[n+]2[O-]`, the T/C reads like this: (dose: 100.0 mg/kg/injection, schedule: Q04DX002 (ip), vehicle: saline) 93 % of control; (dose: 200.0 mg/kg/injection, schedule: Q04DX002 (ip), vehicle: saline) 92 % of control; (dose: 400.0 mg/kg/injection, schedule: Q04DX002 (ip), vehicle: saline) 99 % of control.

Regarding `FC(F)(F)c1ccccc1C(Nc1nncs1)Nc1nncs1`, the T/C is, setting by setting: (dose: 50.0 mg/kg/injection, schedule: Q01DX005 (ip), vehicle: saline with Tween-80) 97 % of control; (dose: 100.0 mg/kg/injection, schedule: Q01DX005 (ip), vehicle: saline with Tween-80) 101 % of control; (dose: 200.0 mg/kg/injection, schedule: Q01DX005 (ip), vehicle: saline with Tween-80) 107 % of control.

On to `O=c1[nH]cc(CN(CCO)CCO)c(=O)[nH]1`, for which the T/C was 106 % of control (dose: 50.0 mg/kg/injection, schedule: Q01DX005 (ip), vehicle: saline); 105 % of control (dose: 100.0 mg/kg/injection, schedule: Q01DX005 (ip), vehicle: saline); 99 % of control (dose: 200.0 mg/kg/injection, schedule: Q01DX005 (ip), vehicle: saline).

(Values after PubChem BioAssay AID330 (DTP/NCI, 2004).)
